Laboratory results as given in BindingDB's records for doi:10.1038/sj.npp.1300203 (Case Western Reserve University, 2003).

Columns and labels:
[1] = target: T1, 5-hydroxytryptamine receptor 3A (Rattus norvegicus, UniProt P35563)
T1 sequence (P35563 whole entry): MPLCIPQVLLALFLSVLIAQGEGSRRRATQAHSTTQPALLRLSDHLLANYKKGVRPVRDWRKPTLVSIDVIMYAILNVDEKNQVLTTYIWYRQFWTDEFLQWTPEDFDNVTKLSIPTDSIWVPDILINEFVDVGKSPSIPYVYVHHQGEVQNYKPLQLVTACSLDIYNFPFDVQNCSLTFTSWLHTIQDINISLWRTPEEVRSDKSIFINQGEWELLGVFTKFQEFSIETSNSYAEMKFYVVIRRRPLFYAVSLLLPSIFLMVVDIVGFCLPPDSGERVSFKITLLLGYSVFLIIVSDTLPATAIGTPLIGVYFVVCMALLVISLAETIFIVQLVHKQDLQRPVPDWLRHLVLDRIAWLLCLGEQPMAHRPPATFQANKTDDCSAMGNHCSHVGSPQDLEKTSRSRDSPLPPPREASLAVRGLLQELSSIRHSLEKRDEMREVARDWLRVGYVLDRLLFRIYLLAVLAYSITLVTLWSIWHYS

[2] = target: Prostaglandin E2 receptor EP4 subtype (Homo sapiens, UniProt P35408)
[3] = target: Protein kinase C alpha type (Homo sapiens, UniProt P17252)
[4] = target: T2, Prostaglandin E2 receptor EP3 subtype (Homo sapiens, UniProt P43115)
T2 sequence (P43115 whole entry): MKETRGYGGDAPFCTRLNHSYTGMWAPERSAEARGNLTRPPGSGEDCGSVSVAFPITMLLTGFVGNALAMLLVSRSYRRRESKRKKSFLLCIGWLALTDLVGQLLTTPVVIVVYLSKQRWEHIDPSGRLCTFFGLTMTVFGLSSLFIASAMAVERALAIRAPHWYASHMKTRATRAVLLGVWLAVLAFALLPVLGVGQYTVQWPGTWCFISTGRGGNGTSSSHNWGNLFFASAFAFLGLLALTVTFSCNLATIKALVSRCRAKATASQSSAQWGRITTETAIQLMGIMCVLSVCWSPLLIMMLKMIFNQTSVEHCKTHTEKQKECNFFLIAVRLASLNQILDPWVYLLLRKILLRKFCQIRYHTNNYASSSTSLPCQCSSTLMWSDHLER

[5] = target: Gamma-aminobutyric acid type B receptor subunit 1 (UniProt Q9Z0U4)
[6] = target: Histamine H4 receptor (Homo sapiens, UniProt Q9H3N8)
[7] = target: Protein kinase C gamma type (Homo sapiens, UniProt P05129)
[8] = target: Histamine H3 receptor (Cavia porcellus, UniProt Q9JI35)
Histamine H3 receptor, sequence (Q9JI35 whole entry): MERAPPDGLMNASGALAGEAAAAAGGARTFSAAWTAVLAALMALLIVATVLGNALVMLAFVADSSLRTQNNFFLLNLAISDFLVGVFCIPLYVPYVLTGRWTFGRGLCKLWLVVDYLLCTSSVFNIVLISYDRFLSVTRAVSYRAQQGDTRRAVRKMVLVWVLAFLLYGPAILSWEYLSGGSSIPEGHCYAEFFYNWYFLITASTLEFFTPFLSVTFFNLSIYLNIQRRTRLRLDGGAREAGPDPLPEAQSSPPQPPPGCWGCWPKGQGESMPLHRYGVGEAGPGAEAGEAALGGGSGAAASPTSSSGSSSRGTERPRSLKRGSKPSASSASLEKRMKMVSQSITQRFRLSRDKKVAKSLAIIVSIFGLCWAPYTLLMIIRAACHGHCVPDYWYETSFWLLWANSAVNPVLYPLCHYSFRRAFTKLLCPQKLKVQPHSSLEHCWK

Histamine H4 receptor, sequence (Q9H3N8 whole entry): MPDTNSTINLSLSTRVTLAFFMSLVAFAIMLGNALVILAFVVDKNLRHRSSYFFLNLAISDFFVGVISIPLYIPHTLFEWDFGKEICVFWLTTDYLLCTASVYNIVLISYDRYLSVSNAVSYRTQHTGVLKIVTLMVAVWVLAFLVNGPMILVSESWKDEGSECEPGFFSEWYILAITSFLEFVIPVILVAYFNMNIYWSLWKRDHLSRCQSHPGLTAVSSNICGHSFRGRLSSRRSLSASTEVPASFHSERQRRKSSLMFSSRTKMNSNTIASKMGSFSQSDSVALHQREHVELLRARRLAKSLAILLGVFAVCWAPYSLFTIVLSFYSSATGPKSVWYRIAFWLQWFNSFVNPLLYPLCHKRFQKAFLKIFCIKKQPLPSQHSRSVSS
Gamma-aminobutyric acid type B receptor subunit 1, sequence (Q9Z0U4 whole entry): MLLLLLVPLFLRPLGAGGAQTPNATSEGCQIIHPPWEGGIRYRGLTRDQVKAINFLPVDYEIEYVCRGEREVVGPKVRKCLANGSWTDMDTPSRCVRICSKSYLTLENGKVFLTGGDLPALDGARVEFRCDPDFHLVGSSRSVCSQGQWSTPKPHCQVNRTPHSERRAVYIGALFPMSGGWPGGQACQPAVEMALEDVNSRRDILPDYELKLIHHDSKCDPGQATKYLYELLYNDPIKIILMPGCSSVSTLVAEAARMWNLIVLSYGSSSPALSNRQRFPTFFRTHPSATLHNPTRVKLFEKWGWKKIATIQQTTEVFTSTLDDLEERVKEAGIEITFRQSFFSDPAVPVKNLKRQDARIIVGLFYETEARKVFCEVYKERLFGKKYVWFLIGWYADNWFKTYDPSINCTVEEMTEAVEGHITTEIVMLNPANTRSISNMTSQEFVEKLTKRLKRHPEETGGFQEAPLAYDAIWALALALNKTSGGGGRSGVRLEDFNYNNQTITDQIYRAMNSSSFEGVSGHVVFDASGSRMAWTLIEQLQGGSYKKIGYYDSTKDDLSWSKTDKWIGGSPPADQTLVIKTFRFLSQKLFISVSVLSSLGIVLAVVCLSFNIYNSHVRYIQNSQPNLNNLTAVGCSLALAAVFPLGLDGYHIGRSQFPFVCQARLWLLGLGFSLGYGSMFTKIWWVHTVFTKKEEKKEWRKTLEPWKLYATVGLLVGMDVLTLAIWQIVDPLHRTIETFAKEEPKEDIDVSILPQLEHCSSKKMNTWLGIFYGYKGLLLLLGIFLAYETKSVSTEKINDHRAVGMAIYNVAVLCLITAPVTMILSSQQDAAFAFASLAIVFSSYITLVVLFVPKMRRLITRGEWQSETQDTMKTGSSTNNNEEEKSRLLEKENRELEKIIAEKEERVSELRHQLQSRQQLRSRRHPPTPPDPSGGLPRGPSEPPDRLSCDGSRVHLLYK
Prostaglandin E2 receptor EP4 subtype, sequence (P35408 whole entry): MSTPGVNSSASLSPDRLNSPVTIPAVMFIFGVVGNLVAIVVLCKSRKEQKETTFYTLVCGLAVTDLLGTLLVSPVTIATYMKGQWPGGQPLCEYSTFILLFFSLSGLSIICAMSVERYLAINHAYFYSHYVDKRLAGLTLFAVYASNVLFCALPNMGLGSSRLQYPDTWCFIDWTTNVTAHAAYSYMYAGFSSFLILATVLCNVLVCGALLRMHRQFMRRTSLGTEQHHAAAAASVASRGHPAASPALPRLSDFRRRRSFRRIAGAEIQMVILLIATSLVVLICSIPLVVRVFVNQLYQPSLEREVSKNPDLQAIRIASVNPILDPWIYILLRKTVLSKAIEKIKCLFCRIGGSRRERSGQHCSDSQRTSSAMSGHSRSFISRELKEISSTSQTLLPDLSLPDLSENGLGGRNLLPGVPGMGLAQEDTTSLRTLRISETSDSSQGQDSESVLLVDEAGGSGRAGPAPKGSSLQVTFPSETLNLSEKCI

## O=C1CCc2ccc(OCCCCN3CCN(c4cccc(Cl)c4Cl)CC3)cc2N1 [7-{4-[4-(2,3-dichlorophenyl)piperazin-1-yl]butoxy}-3,4-dihydroquinolin-2(1H)-one]
[1]
  Ki: 0.63 µM
[2]
  Ki: > 10 µM
[3]
  Ki: > 10 µM
[4]
  Ki: > 10 µM
[5]
  Ki: > 10 µM
[6]
  Ki: > 10 µM
[7]
  Ki: 8 µM
[8]
  Ki: 0.224 µM
